How the values were obtained:
[1] = test system: TSST-1 production by S. aureus FRI-1187; format: cell-based, Staphylococcus aureus
[2] = test system: TSST-1 production by S. aureus FRI-1169; format: cell-based, Staphylococcus aureus

## Oc1cc(Cl)ccc1Oc1ccc(Cl)cc1Cl [Triclosan, triclosan]
[1]
  TSST-1 production compared to the control: produced less TSST-1
[2]
  TSST-1 production compared to the control: produced less TSST-1

From patent publication US7323186B2 (priority 2001, dated 2008)
